For one experiment, the target named is T1, human GLP2 receptor (Homo sapiens, UniProt O95838).
T1 construct: expressed in transfected cells; host or cells: HEK cells, BacMam virus transduction
T1 sequence (O95838 1-553): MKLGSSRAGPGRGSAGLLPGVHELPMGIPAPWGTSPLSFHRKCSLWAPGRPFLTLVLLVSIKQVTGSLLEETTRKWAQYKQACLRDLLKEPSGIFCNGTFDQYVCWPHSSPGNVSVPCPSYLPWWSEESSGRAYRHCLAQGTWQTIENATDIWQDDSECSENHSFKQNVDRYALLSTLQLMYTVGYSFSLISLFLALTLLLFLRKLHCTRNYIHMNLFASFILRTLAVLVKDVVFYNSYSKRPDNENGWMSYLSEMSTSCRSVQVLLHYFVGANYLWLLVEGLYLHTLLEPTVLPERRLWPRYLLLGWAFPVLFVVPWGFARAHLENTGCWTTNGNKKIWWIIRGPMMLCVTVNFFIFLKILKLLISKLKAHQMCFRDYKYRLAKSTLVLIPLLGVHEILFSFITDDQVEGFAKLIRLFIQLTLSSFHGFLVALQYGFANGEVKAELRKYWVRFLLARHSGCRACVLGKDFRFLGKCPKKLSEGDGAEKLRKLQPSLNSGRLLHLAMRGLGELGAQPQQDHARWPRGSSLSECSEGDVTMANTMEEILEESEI
As to the kind of experiment: cAMP accumulation assay, functional agonism of human GLP2 receptor. The experiment is classed as cell-based. To be noted: HEK cells infected with human GLP2 receptor BacMam virus, HTRF cAMP; for Emax: HEK293, read-out: Human GLP-2R agonist cAMP Emax; for EC50: read-out: Human GLP-2R agonist cAMP pEC50 (converted). The procedure, abridged: (§1)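 HTRF cAMP read-out: HEK cells expressing GLP1 or GLP2 receptor via 24 h BacMam infection, frozen before use; agonist exposure 45 min, 37° C, HBSS + 0.5 mM IBMX; stopped with detection reagents in lysis buffer.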
In general terms: cAMP levels reflect the balance of adenylyl cyclase and phosphodiesterase activity.

In another experiment the target is T2, human GLP1 receptor (Homo sapiens, UniProt P43220).
T2 construct: expressed in transfected cells; host or cells: HEK cells, BacMam virus transduction
T2 sequence (P43220 24-463): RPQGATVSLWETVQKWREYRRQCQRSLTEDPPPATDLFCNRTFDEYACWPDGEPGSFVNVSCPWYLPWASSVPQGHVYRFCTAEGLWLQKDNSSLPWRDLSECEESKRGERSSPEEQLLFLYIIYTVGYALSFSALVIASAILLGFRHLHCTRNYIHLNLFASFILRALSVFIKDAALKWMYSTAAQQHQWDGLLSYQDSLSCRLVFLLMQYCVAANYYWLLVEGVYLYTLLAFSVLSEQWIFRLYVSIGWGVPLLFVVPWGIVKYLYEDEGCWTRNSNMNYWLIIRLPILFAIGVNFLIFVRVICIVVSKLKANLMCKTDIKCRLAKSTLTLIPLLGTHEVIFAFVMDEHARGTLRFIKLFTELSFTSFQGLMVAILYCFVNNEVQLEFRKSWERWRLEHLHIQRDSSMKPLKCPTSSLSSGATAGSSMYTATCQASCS
As to the kind of experiment: cAMP accumulation assay, functional agonism of human GLP1 receptor. In kind it is cell-based. The following applies: HEK cells infected with human GLP1 receptor BacMam virus, HTRF cAMP; for Emax: HEK293, read-out: Human GLP-1R agonist cAMP Emax; for EC50: read-out: Human GLP-1R agonist cAMP pEC50 (converted). Summed up:
as §1

Positions of bridges follow the written chain, without caps; N, C: chain ends. Non-standard residues stand in square brackets, D forms with d. Residues, ends and D or L forms follow the SMILES beside them. *: point of attachment. Malonyl(2,2-Me2,histaminyl) = CC(C)(C(=O)NCCc1cnc[nH]1)C(=O)*; Ala(1H-tetrazol-5-yl) = N[C@@H](Cc1nnn[nH]1)C(=O)O; Nle = CCCC[C@H](N)C(=O)O; Aib = CC(C)(N)C(=O)O

Results on five compounds are retold here after US20240270809A1, “ORAL GLP RECEPTOR AGONISTS” (priority 2020, published 2024).

The Emax is the size of the effect at its maximum, as opposed to the concentration needed. Turning to `CCCC[C@@H]1NC(=O)[C@H](CCC(=O)O)NC(=O)[C@@H](NC(=O)[C@H](CO)NC(=O)[C@H](Cc2ccccc2)NC(=O)[C@H](CO)NC(=O)CNC(=O)[C@H](Cc2nn[nH]n2)NC(=O)C(C)(C)C(=O)NCCc2c[nH]cn2)CCCCNC(=O)C[C@@H](C(=O)N[C@H](C(=O)N[C@@H](CC(C)C)C(=O)N[C@@H](CC(=O)O)C(=O)N[C@@H](CC(C)C)C(=O)N[C@@H](CCCCN)C(=O)N[C@@H](C)C(=O)N[C@@H](C)C(=O)N[C@@H](CCCCN)C(=O)N[C@@H](CC(=O)O)C(=O)N[C@@H](Cc2ccccc2)C(=O)N[C@H](C(=O)N[C@@H](CC(N)=O)C(=O)N[C@@H](Cc2c[nH]c3ccccc23)C(=O)N[C@@H](CC(C)C)C(=O)N[C@H](C(=O)N[C@@H](CCC(N)=O)C(=O)N[C@H](C(=O)N[C@@H](CCCCN)C(=O)N[C@H](C(=O)N[C@H](C(=O)N[C@@H](Cc2ccccc2)C(N)=O)[C@@H](C)O)[C@@H](C)CC)[C@@H](C)O)[C@@H](C)CC)[C@@H](C)CC)[C@@H](C)CC)NC(=O)[C@@H](Cc2ccccc2)NC1=O` [Example 82] ({Malonyl(2,2-Me2,histaminyl)}-[Ala(1H-tetrazol-5-yl)]GSFSKE[Nle][dF]DILDLKAAKDFINWLIQTKITF-NH2; lactam 6-10 (inferred); C-terminus assumed), at human GLP2 receptor, the Emax is 104% and the EC50 is 0.0794 nM. Further, at human GLP1 receptor, the Emax stood at 94.5% and the EC50 was 12.6 nM.

For `CCCC[C@H](NC(=O)[C@H](CCC(=O)O)NC(=O)[C@H](CC(=O)O)NC(=O)[C@H](CO)NC(=O)[C@H](Cc1ccccc1)NC(=O)[C@H](CO)NC(=O)CNC(=O)[C@H](Cc1nn[nH]n1)NC(=O)C(C)(C)C(=O)NCCc1c[nH]cn1)C(=O)N[C@H](Cc1ccccc1)C(=O)N[C@H](C(=O)N[C@H](C(=O)N[C@@H](CC(C)C)C(=O)N[C@@H](CC(=O)O)C(=O)N[C@@H](CC(C)C)C(=O)N[C@@H](CCCCN)C(=O)N[C@@H](C)C(=O)N[C@@H](C)C(=O)N[C@@H](CCCCN)C(=O)N[C@@H](CC(=O)O)C(=O)N[C@@H](Cc1ccccc1)C(=O)N[C@H](C(=O)N[C@@H](CC(N)=O)C(=O)N[C@@H](Cc1c[nH]c2ccccc12)C(=O)N[C@@H](CC(C)C)C(=O)N[C@H](C(=O)N[C@@H](CCC(N)=O)C(=O)N[C@H](C(=O)N[C@H]1CCC(=O)NCCCC[C@@H](C(N)=O)NC(=O)[C@H]([C@@H](C)O)NC(=O)[C@H]([C@@H](C)CC)NC1=O)[C@@H](C)O)[C@@H](C)CC)[C@@H](C)CC)[C@@H](C)CC)[C@@H](C)O` [Example 83] ({Malonyl(2,2-Me2,histaminyl)}-[Ala(1H-tetrazol-5-yl)]GSFSDE[Nle][dF]TILDLKAAKDFINWLIQTEITK-NH2; lactam 28-31 (inferred); C-terminus assumed), at human GLP2 receptor, the Emax stood at 103% and the EC50 is 0.251 nM. Moreover, on human GLP1 receptor, the Emax is 98.1% and the EC50 was 0.631 nM.

In the case of `CCCC[C@H](NC(=O)[C@H](CCC(=O)O)NC(=O)[C@@H]1CC(=O)NCCCC[C@H](NC(=O)[C@H](CC(=O)O)NC(=O)C(C)(C)NC(=O)[C@@H](N)Cc2c[nH]cn2)C(=O)N[C@@H](CO)C(=O)N[C@@H](Cc2ccccc2)C(=O)N[C@@H](CO)C(=O)N1)C(=O)N[C@H](Cc1ccccc1)C(=O)N[C@H](C(=O)N[C@H](C(=O)N[C@@H](CC(C)C)C(=O)N[C@@H](CC(=O)O)C(=O)N[C@@H](CC(C)C)C(=O)N[C@@H](CCCCN)C(=O)N[C@@H](C)C(=O)N[C@@H](C)C(=O)N[C@@H](CCCCN)C(=O)N[C@@H](CC(=O)O)C(=O)N[C@@H](Cc1ccccc1)C(=O)N[C@H](C(=O)N[C@@H](CC(N)=O)C(=O)N[C@@H](Cc1c[nH]c2ccccc12)C(=O)N[C@@H](CC(C)C)C(=O)N[C@H](C(=O)N[C@@H](CCC(N)=O)C(=O)N[C@H](C(=O)N[C@@H](CCCCN)C(=O)N[C@H](C(=O)N[C@H](C(=O)N[C@@H](CC(=O)O)C(N)=O)[C@@H](C)O)[C@@H](C)CC)[C@@H](C)O)[C@@H](C)CC)[C@@H](C)CC)[C@@H](C)CC)[C@@H](C)O` [Example 84] (H-H[Aib]DKSFSDE[Nle][dF]TILDLKAAKDFINWLIQTKITD-NH2; lactam 4-8; C-terminus assumed), at human GLP2 receptor, the Emax came out at 103% and the EC50 was 0.0501 nM. In addition, on human GLP1 receptor, the maximal response (Emax) is 87.3% and the EC50 was 10 nM.

Take `CCCC[C@@H]1NC(=O)[C@H](CCC(=O)O)NC(=O)[C@@H](NC(=O)[C@H](CO)NC(=O)[C@H](Cc2ccccc2)NC(=O)[C@H](CO)NC(=O)CNC(=O)[C@H](CC(=O)O)NC(=O)C(C)(C)NC(=O)[C@@H](N)Cc2c[nH]cn2)CCCCNC(=O)C[C@@H](C(=O)N[C@H](C(=O)N[C@@H](CC(C)C)C(=O)N[C@@H](CC(=O)O)C(=O)N[C@@H](CC(C)C)C(=O)N[C@@H](CCCCN)C(=O)N[C@@H](C)C(=O)N[C@@H](C)C(=O)N[C@@H](CCCCN)C(=O)N[C@@H](CC(=O)O)C(=O)N[C@@H](Cc2ccccc2)C(=O)N[C@H](C(=O)N[C@@H](CC(N)=O)C(=O)N[C@@H](Cc2c[nH]c3ccccc23)C(=O)N[C@@H](CC(C)C)C(=O)N[C@H](C(=O)N[C@@H](CCC(N)=O)C(=O)N[C@H](C(=O)N[C@@H](CCCCN)C(=O)N[C@H](C(=O)N[C@H](C(=O)N[C@@H](CC(=O)O)C(N)=O)[C@@H](C)O)[C@@H](C)CC)[C@@H](C)O)[C@@H](C)CC)[C@@H](C)CC)[C@@H](C)CC)NC(=O)[C@@H](Cc2ccccc2)NC1=O` [Example 85] (H-H[Aib]DGSFSKE[Nle][dF]DILDLKAAKDFINWLIQTKITD-NH2; lactam 8-12; N-terminus and C-terminus assumed): the Emax was 103% at human GLP2 receptor and 95.2% on human GLP1 receptor. In addition, the EC50 was 0.0316 nM on human GLP2 receptor and 12.6 nM at human GLP1 receptor.

With `CCCC[C@H](NC(=O)[C@H](CCC(=O)O)NC(=O)[C@H](CC(=O)O)NC(=O)[C@H](CO)NC(=O)[C@H](Cc1ccccc1)NC(=O)[C@H](CO)NC(=O)CNC(=O)[C@H](CC(=O)O)NC(=O)C(C)(C)NC(=O)[C@@H](N)Cc1c[nH]cn1)C(=O)N[C@H](Cc1ccccc1)C(=O)N[C@H]1CC(=O)NCCCC[C@@H](C(=O)N[C@@H](CCCCN)C(=O)N[C@@H](C)C(=O)N[C@@H](C)C(=O)N[C@@H](CCCCN)C(=O)N[C@@H](CC(=O)O)C(=O)N[C@@H](Cc2ccccc2)C(=O)N[C@H](C(=O)N[C@@H](CC(N)=O)C(=O)N[C@@H](Cc2c[nH]c3ccccc23)C(=O)N[C@@H](CC(C)C)C(=O)N[C@H](C(=O)N[C@@H](CCC(N)=O)C(=O)N[C@H](C(=O)N[C@@H](CCCCN)C(=O)N[C@H](C(=O)N[C@H](C(=O)N[C@@H](CC(=O)O)C(N)=O)[C@@H](C)O)[C@@H](C)CC)[C@@H](C)O)[C@@H](C)CC)[C@@H](C)CC)NC(=O)[C@H](CC(=O)O)NC(=O)[C@H](CC(C)C)NC(=O)[C@H]([C@@H](C)CC)NC1=O` [Example 97] (H-H[Aib]DGSFSDE[Nle][dF]DILDKKAAKDFINWLIQTKITD-NH2; lactam 12-16; N-terminus and C-terminus assumed), the Emax at human GLP2 receptor turned out to be 101%; at human GLP1 receptor, 96.6%. The EC50 was 0.00316 nM at human GLP2 receptor and 0.316 nM on human GLP1 receptor.
